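Step 1: Grow cells in 96-well plates. Step 2: Expose to compound for 48 hours at 5 concentrations. Step 3: Interpolate endpoints linearly; if unreached, use highest concentration. GI50: concentration for 50% inhibition of growth.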 The source made the active and inactive calls. Rule as the data show it: active = GI50 up to about 1.1 µM and inactive = higher.
Legend:
Test in all cases: DTP human tumour cell line panel, 48 h
[1] = tested on: HCT-15
[2] = tested on: SNB-75
[3] = tested on: M14
[4] = tested on: OVCAR-3
[5] = tested on: OVCAR-8
[6] = tested on: EKVX
[7] = tested on: A498
[8] = tested on: SR
[9] = tested on: OVCAR-4
[10] = tested on: Hs-578T
[11] = tested on: SF-539
[12] = tested on: SW-620
[13] = tested on: UACC-257
[14] = tested on: OVCAR-5
[15] = tested on: SF-268
[16] = tested on: HOP-62
[17] = tested on: PC-3
[18] = tested on: MDA-MB-435
[19] = tested on: MDA-MB-231
[20] = tested on: SN12C

Row | SMILES | GI50 [1] | GI50 [2] | GI50 [3] | GI50 [4] | GI50 [5] | GI50 [6] | GI50 [7] | GI50 [8] | GI50 [9] | GI50 [10] | GI50 [11] | GI50 [12] | GI50 [13] | GI50 [14] | GI50 [15] | GI50 [16] | GI50 [17] | GI50 [18] | GI50 [19] | GI50 [20]
1 | COc1cc(C2c3cc4c(cc3OC(NCCO)C2C)OCO4)cc(OC)c1OC (stereo not given) | 0.347 µM | 1.12 µM (inactive) | 0.27 µM (active) | 0.244 µM (active) | 2.2 µM (inactive) | 13.1 µM (inactive) | 0.325 µM (active) | 0.248 µM (active) | 12.7 µM (inactive) | 0.325 µM (active) | 0.232 µM (active) | 0.326 µM (active) | 1.61 µM (inactive) | 7.48 µM (inactive) | 2.05 µM (inactive) | 0.289 µM (active) | 0.418 µM (active) | 0.0927 µM (active) | 1.6 µM (inactive) | 0.658 µM (active)
2 | O=C(O)C1[C@@H](C(=O)O)C1(Br)CBr (stereo not given in full) | > 100 µM | > 100 µM (inactive) | > 100 µM (inactive) | > 100 µM (inactive) | > 100 µM (inactive) | > 100 µM (inactive) | > 100 µM (inactive) | > 100 µM (inactive) | > 100 µM (inactive) | > 100 µM (inactive) | > 100 µM (inactive) | > 100 µM (inactive) | > 100 µM (inactive) | > 100 µM (inactive) | > 100 µM (inactive) | > 100 µM (inactive) | > 100 µM (inactive) | > 100 µM (inactive) | > 100 µM (inactive) | > 100 µM (inactive)
3 | CCNCCCNc1c2ccccc2nc2ccccc12 | 0.366 µM | 0.234 µM (active) | 0.318 µM (active) | 0.326 µM (active) | 0.349 µM (active) | 0.569 µM (active) | 0.631 µM (active) | 0.285 µM (active) | 0.478 µM (active) | 0.653 µM (active) | 0.279 µM (active) | 0.278 µM (active) | 0.424 µM (active) | 0.278 µM (active) | 0.472 µM (active) | 0.402 µM (active) | 0.245 µM (active) | 0.479 µM (active) | 0.612 µM (active) | 0.429 µM (active)

From ChEMBL document CHEMBL1201862, “PubChem BioAssay data set” (2004)
